Experimental data published in PMC7915682, “Pursuing Orally Bioavailable Hepcidin Analogues via Cyclic N-Methylated Mini-Hepcidins” (Biomedicines, 2021).
pEC50: −log10 of the molar value. Like-named read-outs stand apart in the source and are kept apart here. Where a SMILES comes first, the peptide text is derived from it. Where no end group is shown, it is not given here.

Legend:
Caco-2 = Caco-2 in vitro model (preliminary); type: in vitro ADME; conditions: preliminary results, data not shown
Source text: It has been proposed that by enhancing the lipophilicity of peptides, the intestinal permeability could be improved by facilitating transcellular absorption (passive diffusion). Thus, our rationale was to improve the permeability of Hep9 2, by increasing its lipophilicity via both cyclisation and multiple N-methylations. […] Cyclisation and N-methylation appear to facilitate the crossing of the artificial lipid membrane for cHep9[Ser^1, MeThr^2, MeIle^8] 13, but this enhancement was not statistically significant relative to atenolol, a marker for poor transcellular permeability, or Hep9 2, (Figure 5). […] Preliminary results from a Caco-2 in vitro model were consistent with the PAMPA data (data not shown).

[1] = target: T1, GFP-tagged ferroportin (FPN) (Homo sapiens, UniProt Q9NP59); assay: FPN-GFP degradation (internalisation) assay by flow cytometry in HEK293:T-REx-FPN-GFP cells; type: cell-based; conditions: 24 h treatment; for pEC50: FPN degradation dose-response, HEK293:T-REx-FPN-GFP cells; for FPN Degradation % ± SEM: peptide 10 μM, normalised with respect to hepcidin (1 μM), n = 3
T1 construct: expressed in transfected cells
T1 sequence (Q9NP59 1-571): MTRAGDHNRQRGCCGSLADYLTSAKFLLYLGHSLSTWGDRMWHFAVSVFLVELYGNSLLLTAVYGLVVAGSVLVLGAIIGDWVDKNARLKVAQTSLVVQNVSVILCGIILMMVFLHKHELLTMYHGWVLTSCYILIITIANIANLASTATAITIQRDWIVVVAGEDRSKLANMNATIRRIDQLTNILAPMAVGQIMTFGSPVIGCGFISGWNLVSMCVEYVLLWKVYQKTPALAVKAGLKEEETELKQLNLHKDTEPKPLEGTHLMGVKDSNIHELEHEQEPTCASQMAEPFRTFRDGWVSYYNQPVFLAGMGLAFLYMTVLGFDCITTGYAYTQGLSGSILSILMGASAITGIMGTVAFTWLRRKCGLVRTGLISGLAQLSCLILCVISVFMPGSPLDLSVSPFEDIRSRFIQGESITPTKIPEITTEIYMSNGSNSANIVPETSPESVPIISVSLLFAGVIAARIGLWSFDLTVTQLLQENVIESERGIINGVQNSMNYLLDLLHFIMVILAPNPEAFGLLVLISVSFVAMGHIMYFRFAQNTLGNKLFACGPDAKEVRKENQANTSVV
Description: HEK293:T-REx^TM-FPN-GFP cells, described previously, were cultured in T75 flasks containing FPN-GFP media (Dulbecco’s Modified Eagle’s Medium (DMEM) containing high glucose, GlutaMAX^TM supplement, hydroxyethyl piperazineethanesulfonic acid (HEPES), 10% tetracycline screened foetal bovine serum (FBS), 1% penicillin/streptomycin, and 100 μg/mL of hygromycin) and maintained at 37 °C in a humidified atmosphere of 5% CO2.
HEK293:T-REx^TM-FPN-GFP cells were plated in FPN-GFP media in the presence of 20 µM FAC (ferric ammonium citrate = ammonium iron (III) citrate) and induced on the following day with 50 ng/mL of doxycycline hydrochloride. After 24 h, doxycycline hydrochloride was washed off with PBS (phosphate buffered saline) and the cells were treated with peptides for another 24 h. Cells were then trypsinised, centrifuged (5 min at 1000 rpm), and resuspended in PBS at approximately 1 × 10^4 cell/µL. The intensity of green fluorescence was measured by flow cytometry performed on a Becton Dickinson LSR Fortessa-X-20. Cells not induced with doxycycline hydrochloride were used to establish a gate to exclude background fluorescence, and cells induced to express FPN-GFP but not treated with any peptides were used as the positive control. Each peptide treatment was repeated independently at least three times except for the initial screening of the mono N-methylated analogues (Figure 2), which was only performed once. The results were expressed as the % of the reduction in fluorescence with respect to hepcidin-treated cells according to the following formula: % FPN Degradation = (1 − (average FHepc − Fχ)/(average FHepc − average Funtreated)) × 100, where F corresponds to the GFP gate median, and χ to the peptide analysed.
Peptide bioactivity was measured using HEK293:T-REx^TM-FPN-GFP cells stably expressing a GFP-tagged ferroportin (FPN) construct that was treated overnight with different concentrations of hepcidin or analogues. FPN-GFP expression and FPN-GFP internalisation and degradation in response to hepcidin treatment were confirmed by confocal microscopy, and the % of GFP fluorescence was then analysed by flow cytometry and expressed as a % FPN degradation. […] This promising result led us to design a second series of analogues that included multiple N-methylated residues with and without backbone cyclisation.

[2] = Serum stability assay (25% human male serum, 37 °C, LC-MS); type: in vitro ADME
Description: Human male serum was centrifuged at 20,000 g for 10 min and the clear part of the supernatant was then diluted to 25% (v/v) with Milli-Q® water and incubated at 37 °C for 15 min. Each peptide sample was dissolved in triplicate at a final concentration of 20 μM in pre-incubated 25% serum, or Milli-Q® water as a control. […] Supernatant was then removed and transferred into vials for liquid chromatography mass spectrometry (LC-MS) analysis (50 μL injection and multiple reaction monitoring (MRM) protocol, Table S2). The effect of these strategies on the stability of mini-hepcidin analogues was investigated by incubating selected derivatives in human male serum at 37 °C and collecting samples at various time points. The results were then quantitated by liquid chromatography-mass spectrometry (LC-MS). We were unable to determine the serum stability of all analogues as the recovery from serum and detection of the peptides was very low. Modification of sample preparation protocols, optimisation of LC/MS conditions, and reducing serum concentration to 25% were unable to improve yield/detection. We would predict that this poor recovery is due to high binding of peptides to serum proteins, which is consistent with native hepcidin, which binds to α-2-macroglobulin [35, 36]. […] Effect of macrocyclisation and N-methylation on the stability of selected mini- hepcidin derivatives. A) Illustration of sites most susceptible to enzymatic attack in mini- hepcidin derivatives. B) Serum stability analysis of selected […]. Human male serum was centrifuged at 20,000 g for 10 minutes and the clear part of the supernatant was then diluted to 25% (v/v) with Milli-Q® water and incubated at 37 °C for 15 minutes. Each peptide sample was dissolved in triplicate at a final concentration of 20 μM in pre-incubated 25% serum, or Milli-Q® water as a control. Aliquots of 100 μL were removed at different time points and quenched with 100 μL of 15% trichloroacetic acid (TCA), followed by […] Supernatant was then removed and transferred into vials for liquid chromatography mass spectrometry (LC- MS) analysis (50 μL injection and multiple reaction monitoring (MRM) protocol). Error bars […] Comparison between Hep9, 2, […]9, 9. (also on this page, place not known: […] Hep9 2 […]] 7 Proteolytic attack Reduced proteolytic attack Blocked proteolytic attack 0 50 100 150 200 0 50 100 Time /min % Peptide Remaining 2 9 A B 7) (1 picture or pasted object on this page, not shown here)

Compound | pEC50 [1] | also measured
CC[C@H](C)[C@@H]1NC(=O)[C@@H]2CCCN2C(=O)[C@H](Cc2ccccc2)NC(=O)[C@H](Cc2c[nH]cn2)NC(=O)[C@H]([C@@H](C)O)N(C)C(=O)[C@H](CO)NC(=O)[C@H](Cc2ccccc2)NC(=O)[C@H]([C@@H](C)CC)N(C)C(=O)[C@H](CS)NC1=O [Peptide 13, c(S[N-Me T]HFPIC[N-Me I]F)] (HELM PEPTIDE1{S.[meT].H.F.P.I.C.[meI].F}$PEPTIDE1,PEPTIDE1,1:R1-9:R2$$$V2.0) | 6.85 | Caco-2 permeability (Caco-2): paralleled these observations
c(DTH[N-Me F]PICI[N-Me F]) [Peptide 11] |  | FPN Degradation % ± SEM [1]: 63 ± 1.6%
STHFPICIF-OH [Peptide 3] | 6.49 | 
CC[C@H](C)[C@@H]1NC(=O)[C@@H](NC(=O)[C@@H](NC(=O)[C@@H]2CCCN2C(=O)[C@H](Cc2ccccc2)NC(=O)[C@H](Cc2c[nH]cn2)NC(=O)[C@@H](NC(=O)[C@@H](N)CC(=O)O)[C@@H](C)O)[C@@H](C)CC)CSSC[C@@H](C(=O)N[C@@H](CCCCN)C(=O)N[C@H](C(=O)O)[C@@H](C)O)NC(=O)[C@@H]2CSSC[C@@H]3NC(=O)[C@@H]4CSSC[C@H](NC(=O)[C@H](Cc5ccccc5)NC1=O)C(=O)N[C@@H](CSSC[C@H](NC(=O)[C@H](CCCCN)NC(=O)[C@H](CO)NC(=O)[C@H](CCCNC(=N)N)NC(=O)[C@H](Cc1c[nH]cn1)NC3=O)C(=O)NCC(=O)N[C@@H](CCSC)C(=O)N2)C(=O)NCC(=O)N4 [Peptide 1, reference compound] | 8.03 | FPN Degradation % ± SEM [1]: 100 ± 2.6%
CC[C@H](C)[C@H]1C(=O)N[C@@H](Cc2ccccc2)C(=O)N[C@@H](CC(=O)O)C(=O)N[C@@H]([C@@H](C)O)C(=O)N[C@@H](Cc2c[nH]cn2)C(=O)N[C@@H](Cc2ccccc2)C(=O)N2CCC[C@H]2C(=O)N(C)[C@@H]([C@@H](C)CC)C(=O)N[C@@H](CS)C(=O)N1C [Peptide 12, c(DTHFP[N-Me I]C[N-Me I]F)] | 5.54 | 
CC[C@H](C)[C@@H](C(=O)N[C@@H](Cc1ccccc1)C(=O)O)N(C)C(=O)[C@H](CS)NC(=O)[C@H]([C@@H](C)CC)N(C)C(=O)[C@@H]1CCCN1C(=O)[C@H](Cc1ccccc1)NC(=O)[C@H](Cc1c[nH]cn1)NC(=O)[C@H]([C@@H](C)O)N(C)C(=O)[C@@H](N)CO [Peptide 7, S[N-Me T]HFP[N-Me I]C[N-Me I]F] (HELM PEPTIDE1{S.[meT].H.F.P.[meI].C.[meI].F}$$$$V2.0; N-terminus assumed) | 5.72 | 
CC[C@H](C)[C@@H]1NC(=O)[C@H](CS)NC(=O)[C@H]([C@@H](C)CC)NC(=O)[C@@H]2CCCN2C(=O)[C@H](Cc2ccccc2)NC(=O)[C@H](Cc2c[nH]cn2)NC(=O)[C@H]([C@@H](C)O)NC(=O)[C@H](CC(=O)O)NC(=O)CNC(=O)CNC(=O)CNC(=O)CNC(=O)[C@H](Cc2ccccc2)NC1=O [Peptide 10] (HELM PEPTIDE1{C.I.F.G.G.G.G.D.T.H.F.P.I}$PEPTIDE1,PEPTIDE1,1:R1-13:R2$$$V2.0) | 6.80 | 
CC[C@H](C)[C@H](NC(=O)[C@H](CS)NC(=O)[C@@H](NC(=O)[C@@H]1CCCN1C(=O)[C@H](Cc1ccccc1)NC(=O)[C@H](Cc1c[nH]cn1)NC(=O)[C@@H](NC(=O)[C@@H](N)CC(=O)O)[C@@H](C)O)[C@@H](C)CC)C(=O)N[C@@H](Cc1ccccc1)C(=O)O [Peptide 2, reference compound] | 5.68 | half-life at 20 μM ([2]; male, human, serum): ~3 min
CC[C@H](C)[C@@H]1NC(=O)[C@H](CS)NC(=O)[C@H]([C@@H](C)CC)NC(=O)[C@@H]2CCCN2C(=O)[C@H](Cc2ccccc2)NC(=O)[C@H](Cc2c[nH]cn2)NC(=O)[C@H]([C@@H](C)O)NC(=O)[C@H](CC(=O)O)NC(=O)[C@H](Cc2ccccc2)NC1=O [Peptide 8] |  | half-life at 20 μM ([2]; serum (25% v/v), 20 μM peptide in 25% human male serum, 37 °C, read-out: peptide half-life in serum): ~8 min
DTHFP[N-Me I]C[N-Me I]F [Peptide 4] |  | FPN Degradation % ± SEM [1]: Not active
CC[C@H](C)[C@H](NC(=O)[C@H](CS)NC(=O)[C@H]([C@@H](C)CC)N(C)C(=O)[C@@H]1CCCN1C(=O)[C@H](Cc1ccccc1)NC(=O)[C@H](Cc1c[nH]cn1)NC(=O)[C@H]([C@@H](C)O)N(C)C(=O)[C@@H](N)CO)C(=O)N[C@@H](Cc1ccccc1)C(=O)O [Peptide 5, S[N-Me T]HFP[N-Me I]CIF] (HELM PEPTIDE1{S.[meT].H.F.P.[meI].C.I.F}$$$$V2.0; N-terminus assumed) | 4.39 | 
CC[C@H](C)[C@@H]1NC(=O)[C@H](CS)NC(=O)[C@H]([C@@H](C)CC)NC(=O)[C@@H]2CCCN2C(=O)[C@H](Cc2ccccc2)NC(=O)[C@H](Cc2c[nH]cn2)NC(=O)[C@H]([C@@H](C)O)NC(=O)[C@H](CO)NC(=O)[C@H](Cc2ccccc2)NC1=O [Peptide 9] (HELM PEPTIDE1{C.I.F.S.T.H.F.P.I}$PEPTIDE1,PEPTIDE1,1:R1-9:R2$$$V2.0) | 6.58 | 
CC[C@H](C)[C@H](NC(=O)[C@@H]1CCCN1C(=O)[C@H](Cc1ccccc1)NC(=O)[C@H](Cc1c[nH]cn1)NC(=O)[C@H]([C@@H](C)O)N(C)C(=O)[C@@H](N)CO)C(=O)N[C@@H](CS)C(=O)N(C)[C@H](C(=O)N[C@@H](Cc1ccccc1)C(=O)O)[C@@H](C)CC [Peptide 6, S[N-Me T]HFPIC[N-Me I]F] (HELM PEPTIDE1{S.[meT].H.F.P.I.C.[meI].F}$$$$V2.0; N-terminus assumed) | 5.66 | half-life at 20 μM ([2]; 25% (v/v) human male serum, 20 μM peptide in 25% human male serum, 37 °C, read-out: peptide half-life in serum): ~12 min; stability relative to Hep9 ([2]; 25% human male serum, 37 °C, ratio of half-lives): approximately four
